How the values were obtained:
[1] = target: T1, PI3K gamma (PI3Kg) (Homo sapiens, UniProt P48736); test: kinobeads assay, PI3K gamma; assay type: binding; settings: Jurkat cell lysate, read-out: Inhibition values (IC50) PI3Kg
T1 construct: Jurkat cells were homogenized in a Potter S homogenizer in lysis buffer; endogenous in cells; host or cells: Jurkat, clone E6-1 (ATCC TIB-152) lysate
Outline: (§1)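 Jurkat lysate, 5 mg/ml protein, 3 h cold-room incubation with test compound (9-step 1:3 series) and immobilized-ligand affinity beads. Wash, SDS elution, dot blot with specific antibody, Odyssey infrared read. IC50 fitted per kinase.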

[2] = target: T2, mTOR (Homo sapiens, UniProt P42345); test: mTOR kinobeads assay (Jurkat cell lysate, dot blot detection); assay type: binding; settings: read-out: Inhibition values (IC50) mTor
T2 construct: Jurkat cells were homogenized in a Potter S homogenizer in lysis buffer; endogenous in cells; host or cells: Jurkat, clone E6-1 (ATCC TIB-152) lysate
Outline: as §1

[3] = system: S6RP serine-240/244 phosphorylation; test: In vitro phospho-S6 cellular assay (HEK293T/17); assay type: cell-based; settings: Homo sapiens; HEK293T/17 cells, 2 hours, pS6RP Ser240/244; read-out: Inhibition values (IC50) pS6
Outline: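 HEK293T/17 cells in DMEM with 2% FCS were exposed to 8 compound concentrations (0.1% DMSO) for 2 h at 37 °C, then lysed. pS6RP Ser240/244 or pAkt Ser473 in the lysates was quantified by MSD sandwich electrochemiluminescence. IC50 was obtained by sigmoidal variable-slope nonlinear regression.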

[4] = system: Akt serine-473 phosphorylation; test: In vitro phospho-Akt cellular assay (HEK293T/17); assay type: cell-based; settings: Homo sapiens; HEK293T/17 cells, 2 hours, pAkt Ser 473; read-out: Inhibition values (IC50) pAkt
Description: Activation of mTOR signaling results in phosphorylation of several downstream targets. In cells, mTOR exists in two different protein complexes. The mTOR Complex-1 (mTORC1) phosphorylates and activates S6 Kinase 1 (S6K1) and S6 Kinase 2 (S6K2) (also known as p70S6K) which then phosphorylate S6 Ribosomal Protein (S6RP) (also known as RPS6)3. S6RP is phosphorylated on serine 235, senile 236, serine 240 and serine 244 by both pS6K1 and pS6K2. The mTOR Complex-2 (mTORC2) phosphorylates AKT on serine 473 which activates the AKT signaling pathway.
The assay measures a test compound's inhibition of S6RP serine-240/244 phosphorylation and inhibition of Akt serine-473 phosphorylation in human embryonic kidney derived HEK293T/17 cells (ATCC CRL-11268).
The HEK293T/17 cell line is maintained in DMEM media (Invitrogen catalogue number 41965-039) supplemented with 10% FCS at 37° C. in a 5% CO2 humidified incubator. Cells are seeded in 96-well plates at 40,000 cells/well (pS6RP S240/244 assay) or 80,000 cells/well (pAkt 5473 assay) in 90 μl growth media (DMEM, 2% FCS). Plates are incubated for 1 hour in a humidified incubator to allow the cells to adhere. Cells are treated with 8 concentrations of test compounds or DMSO alone for controls (final DMSO concentration 0.1%) and incubated at 37° C. for 2 hours. Then 20 μl of 5× concentrated lysis buffer (750 mM NaCl, 100 mM Tris pH7.4, 5 mM ADTA, 5 mM EGTA, 5% Triton X-100) is added, plates are sealed and incubated for 15 minutes at 4° C. with gentle shaking After cell lysis, 25 μl cell lysate is transferred to a MesoScale plate coated with an antibody to pS6RP Ser240/244 (MesoScale Discovery K150DGD-3) or an antibody to pAkt Ser 473 (MesoScale Discovery K151DGD-3). Plates have been blocked before by incubation with 150 μl MesoScale Discovery Blocking Solution-A for 1 hour at room temperature followed by washing with 150 μl 1×Tris wash buffer per well. After the transfer of the cell lysate to the MSD plate, the pS6RP (or pAkt) protein is captured on the coated antibody by incubation at room temperature for 1 hour with gentle shaking. After the capture step the plate is washed three times with 150 μl of 1× Tris wash buffer per well. Then 25 μl detection antibody conjugated with a Sulfo-Tag is added and incubated for 1 hour at room temperature with gentle shaking. Subsequently the antibody solution is removed and the plate is washed 3 times with 150 μl 1×Tris wash buffer per well and 150 μl Read buffer is added. The plates are analysed on a MSD 2400 Plate Reader (MesoScale Discovery). Data analysis is performed using nonlinear regression for a sigmoidal dose-response with a variable slope.

[5] = target: T3, PI3K alpha (PI3Kα) (Homo sapiens, UniProt P42336); test: kinobeads assay, PI3K alpha; assay type: binding; settings: Jurkat cell lysate, read-out: Inhibition values (IC50) PI3Ka
T3 construct: Jurkat cells were homogenized in a Potter S homogenizer in lysis buffer; endogenous in cells; host or cells: Jurkat, clone E6-1 (ATCC TIB-152) lysate
T3 sequence (P42336 whole entry): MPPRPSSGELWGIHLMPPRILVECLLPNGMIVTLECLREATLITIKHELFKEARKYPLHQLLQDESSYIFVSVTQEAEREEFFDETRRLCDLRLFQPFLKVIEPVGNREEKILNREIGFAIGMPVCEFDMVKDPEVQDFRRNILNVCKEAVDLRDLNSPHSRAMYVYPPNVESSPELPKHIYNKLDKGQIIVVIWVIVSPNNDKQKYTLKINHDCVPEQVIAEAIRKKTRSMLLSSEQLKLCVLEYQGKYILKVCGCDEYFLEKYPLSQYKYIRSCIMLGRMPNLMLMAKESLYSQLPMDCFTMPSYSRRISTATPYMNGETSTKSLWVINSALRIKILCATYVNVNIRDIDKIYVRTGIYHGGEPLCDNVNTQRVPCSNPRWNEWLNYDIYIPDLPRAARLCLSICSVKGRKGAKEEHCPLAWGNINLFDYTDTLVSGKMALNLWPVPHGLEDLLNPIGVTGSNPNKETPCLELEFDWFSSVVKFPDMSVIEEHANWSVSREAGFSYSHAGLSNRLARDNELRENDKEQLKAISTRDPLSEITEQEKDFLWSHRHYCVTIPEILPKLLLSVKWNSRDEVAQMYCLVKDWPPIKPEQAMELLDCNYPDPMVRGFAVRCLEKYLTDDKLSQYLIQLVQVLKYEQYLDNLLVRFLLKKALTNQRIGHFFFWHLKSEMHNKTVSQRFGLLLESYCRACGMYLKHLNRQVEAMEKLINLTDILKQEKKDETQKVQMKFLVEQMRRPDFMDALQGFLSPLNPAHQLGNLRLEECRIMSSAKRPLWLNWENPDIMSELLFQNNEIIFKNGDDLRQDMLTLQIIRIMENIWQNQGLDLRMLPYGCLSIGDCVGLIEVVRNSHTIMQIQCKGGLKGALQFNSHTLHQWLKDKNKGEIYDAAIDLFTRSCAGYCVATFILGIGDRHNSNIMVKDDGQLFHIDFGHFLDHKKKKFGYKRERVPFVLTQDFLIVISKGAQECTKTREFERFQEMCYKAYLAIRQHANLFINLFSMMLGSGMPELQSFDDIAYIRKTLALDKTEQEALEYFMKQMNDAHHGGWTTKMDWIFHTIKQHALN
T3 sequence (P27986 whole entry partner): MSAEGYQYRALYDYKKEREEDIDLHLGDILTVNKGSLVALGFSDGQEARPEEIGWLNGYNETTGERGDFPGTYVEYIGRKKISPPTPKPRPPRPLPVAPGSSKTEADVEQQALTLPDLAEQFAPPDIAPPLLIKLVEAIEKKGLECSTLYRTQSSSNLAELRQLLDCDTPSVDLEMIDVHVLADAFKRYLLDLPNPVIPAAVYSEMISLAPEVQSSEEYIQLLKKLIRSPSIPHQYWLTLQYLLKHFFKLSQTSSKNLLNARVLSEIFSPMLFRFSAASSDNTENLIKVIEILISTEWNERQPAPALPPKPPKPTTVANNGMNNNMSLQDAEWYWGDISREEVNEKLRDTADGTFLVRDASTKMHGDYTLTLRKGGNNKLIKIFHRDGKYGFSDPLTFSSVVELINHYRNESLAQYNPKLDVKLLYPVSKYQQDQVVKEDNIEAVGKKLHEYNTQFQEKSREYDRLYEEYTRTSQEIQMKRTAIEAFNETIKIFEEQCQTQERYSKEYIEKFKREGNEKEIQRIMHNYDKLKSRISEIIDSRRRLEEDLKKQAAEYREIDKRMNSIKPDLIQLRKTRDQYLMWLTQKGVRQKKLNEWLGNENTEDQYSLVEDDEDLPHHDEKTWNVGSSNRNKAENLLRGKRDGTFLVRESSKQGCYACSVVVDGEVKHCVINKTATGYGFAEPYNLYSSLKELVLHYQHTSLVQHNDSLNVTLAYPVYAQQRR
Outline: as §1

[6] = target: T4, PI3K delta (PI3Kd) (Homo sapiens, UniProt O00329); test: kinobeads assay, PI3K delta; assay type: binding; settings: Jurkat cell lysate, read-out: Inhibition values (IC50) PI3Kd
T4 construct: Jurkat cells were homogenized in a Potter S homogenizer in lysis buffer; endogenous in cells; host or cells: Jurkat, clone E6-1 (ATCC TIB-152) lysate
T4 sequence (O00329 whole entry): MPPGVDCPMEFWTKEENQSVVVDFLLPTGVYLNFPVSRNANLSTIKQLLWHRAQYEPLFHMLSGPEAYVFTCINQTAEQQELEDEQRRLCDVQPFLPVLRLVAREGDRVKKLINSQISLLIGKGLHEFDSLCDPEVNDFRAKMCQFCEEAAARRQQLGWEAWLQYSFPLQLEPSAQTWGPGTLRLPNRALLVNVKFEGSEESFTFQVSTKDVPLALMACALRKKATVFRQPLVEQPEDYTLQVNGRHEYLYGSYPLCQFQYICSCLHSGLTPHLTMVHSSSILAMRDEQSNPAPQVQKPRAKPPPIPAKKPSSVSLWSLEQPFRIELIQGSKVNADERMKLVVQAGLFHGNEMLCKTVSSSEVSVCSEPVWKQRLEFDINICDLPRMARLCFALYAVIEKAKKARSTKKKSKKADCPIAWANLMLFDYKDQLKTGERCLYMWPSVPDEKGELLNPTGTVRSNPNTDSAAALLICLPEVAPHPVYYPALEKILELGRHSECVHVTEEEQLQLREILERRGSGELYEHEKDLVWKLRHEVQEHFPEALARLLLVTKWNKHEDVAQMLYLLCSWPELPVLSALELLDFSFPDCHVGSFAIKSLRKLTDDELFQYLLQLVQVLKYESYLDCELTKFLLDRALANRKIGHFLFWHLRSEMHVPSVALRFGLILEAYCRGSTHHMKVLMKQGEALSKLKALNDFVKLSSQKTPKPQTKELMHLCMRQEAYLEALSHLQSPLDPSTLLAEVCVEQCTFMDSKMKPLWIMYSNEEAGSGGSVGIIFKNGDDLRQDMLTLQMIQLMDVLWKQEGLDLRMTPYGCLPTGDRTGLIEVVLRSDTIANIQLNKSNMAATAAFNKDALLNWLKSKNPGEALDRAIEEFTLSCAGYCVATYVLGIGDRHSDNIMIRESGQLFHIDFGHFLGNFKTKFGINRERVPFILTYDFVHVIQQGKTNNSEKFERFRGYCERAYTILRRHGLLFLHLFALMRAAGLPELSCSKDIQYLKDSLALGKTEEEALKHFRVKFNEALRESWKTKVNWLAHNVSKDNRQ
T4 sequence (P27986 whole entry partner): as the sequence (P27986 whole entry partner) above
Outline: as §1

[7] = target: T5, PI3K beta (PI3Kb) (Homo sapiens, UniProt P42338); test: kinobeads assay, PI3K beta; assay type: binding; settings: Jurkat cell lysate, read-out: Inhibition values (IC50) PI3Kb
T5 construct: Jurkat cells were homogenized in a Potter S homogenizer in lysis buffer; endogenous in cells; host or cells: Jurkat, clone E6-1 (ATCC TIB-152) lysate
T5 sequence (P42338 whole entry): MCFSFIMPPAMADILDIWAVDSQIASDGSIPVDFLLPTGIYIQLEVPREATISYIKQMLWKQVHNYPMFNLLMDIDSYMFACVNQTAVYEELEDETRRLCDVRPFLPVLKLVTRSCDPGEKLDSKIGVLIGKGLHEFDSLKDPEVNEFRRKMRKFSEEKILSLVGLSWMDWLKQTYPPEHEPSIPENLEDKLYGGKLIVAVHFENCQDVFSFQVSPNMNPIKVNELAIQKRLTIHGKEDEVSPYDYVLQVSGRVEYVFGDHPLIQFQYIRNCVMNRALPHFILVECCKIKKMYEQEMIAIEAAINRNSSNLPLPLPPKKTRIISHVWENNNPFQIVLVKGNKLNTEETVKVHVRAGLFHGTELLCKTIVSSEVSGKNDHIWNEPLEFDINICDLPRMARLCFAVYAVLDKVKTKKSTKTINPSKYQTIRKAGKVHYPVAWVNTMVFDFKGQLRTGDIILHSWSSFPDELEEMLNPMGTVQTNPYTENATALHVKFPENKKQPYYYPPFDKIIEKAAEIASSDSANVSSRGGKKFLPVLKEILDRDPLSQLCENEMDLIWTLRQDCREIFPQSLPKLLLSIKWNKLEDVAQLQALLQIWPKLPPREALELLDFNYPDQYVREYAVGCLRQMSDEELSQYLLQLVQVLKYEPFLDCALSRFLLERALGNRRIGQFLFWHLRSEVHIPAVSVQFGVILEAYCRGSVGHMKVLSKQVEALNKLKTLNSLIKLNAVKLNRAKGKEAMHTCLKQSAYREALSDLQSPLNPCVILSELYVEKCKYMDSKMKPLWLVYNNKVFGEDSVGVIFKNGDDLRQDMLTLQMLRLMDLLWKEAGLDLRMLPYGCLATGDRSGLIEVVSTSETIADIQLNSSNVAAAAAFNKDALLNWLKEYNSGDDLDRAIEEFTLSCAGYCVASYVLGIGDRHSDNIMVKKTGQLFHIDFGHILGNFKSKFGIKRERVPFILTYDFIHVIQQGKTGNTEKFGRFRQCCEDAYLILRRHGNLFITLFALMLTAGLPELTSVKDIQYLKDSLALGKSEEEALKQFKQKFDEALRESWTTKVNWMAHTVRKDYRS
T5 sequence (P27986 whole entry partner): as the sequence (P27986 whole entry partner) above
Outline: as §1

[8] = target: T6, DNA-dependent protein kinase (DNA-PK) (Homo sapiens, UniProt P78527); test: kinobeads assay, DNA-PK; assay type: binding; settings: Jurkat cell lysate, read-out: Inhibition values (IC50) DNA-PK
T6 construct: Jurkat cells were homogenized in a Potter S homogenizer in lysis buffer; endogenous in cells; host or cells: Jurkat, clone E6-1 (ATCC TIB-152) lysate
Outline: as §1

T1 sequence (P48736 whole entry): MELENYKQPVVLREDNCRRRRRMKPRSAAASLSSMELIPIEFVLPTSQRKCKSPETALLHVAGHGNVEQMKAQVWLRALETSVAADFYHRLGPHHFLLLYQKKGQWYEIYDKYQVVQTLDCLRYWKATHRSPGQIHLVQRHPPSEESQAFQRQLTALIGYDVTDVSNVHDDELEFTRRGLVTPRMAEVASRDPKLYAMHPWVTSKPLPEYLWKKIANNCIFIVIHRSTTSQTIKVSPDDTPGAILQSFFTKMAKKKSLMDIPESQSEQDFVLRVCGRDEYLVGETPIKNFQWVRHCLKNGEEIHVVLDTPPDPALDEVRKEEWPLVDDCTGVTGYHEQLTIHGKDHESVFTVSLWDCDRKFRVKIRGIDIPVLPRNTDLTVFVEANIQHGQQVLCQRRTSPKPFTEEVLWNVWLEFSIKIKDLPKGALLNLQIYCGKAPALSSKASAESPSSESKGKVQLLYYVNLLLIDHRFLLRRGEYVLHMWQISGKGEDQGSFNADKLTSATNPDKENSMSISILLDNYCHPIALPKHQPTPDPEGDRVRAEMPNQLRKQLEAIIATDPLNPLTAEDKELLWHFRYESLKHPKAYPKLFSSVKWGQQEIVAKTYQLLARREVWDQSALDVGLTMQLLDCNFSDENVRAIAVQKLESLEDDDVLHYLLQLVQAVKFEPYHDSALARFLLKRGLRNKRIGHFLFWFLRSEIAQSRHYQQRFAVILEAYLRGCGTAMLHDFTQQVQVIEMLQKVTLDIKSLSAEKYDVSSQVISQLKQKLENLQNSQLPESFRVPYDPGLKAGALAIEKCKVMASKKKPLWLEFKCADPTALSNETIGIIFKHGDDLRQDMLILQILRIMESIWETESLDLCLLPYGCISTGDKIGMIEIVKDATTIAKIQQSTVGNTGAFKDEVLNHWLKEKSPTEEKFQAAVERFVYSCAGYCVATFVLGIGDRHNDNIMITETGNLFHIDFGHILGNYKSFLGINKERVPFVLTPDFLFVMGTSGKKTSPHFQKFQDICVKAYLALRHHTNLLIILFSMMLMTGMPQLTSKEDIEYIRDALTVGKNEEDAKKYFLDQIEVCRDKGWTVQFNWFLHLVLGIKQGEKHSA

IC50 [1]: > 10 µM
IC50 [2]: < 0.1 µM
IC50 [3]: < 0.1 µM
IC50 [4]: < 0.1 µM
IC50 [5]: > 10 µM
IC50 [6]: 1 to 10 µM
IC50 [7]: 1 to 10 µM
IC50 [8]: > 10 µM
SMILES: C[C@H]1COCCN1c1nc(-c2ccc(NC(=O)NC3CC3)cc2)nc(-c2cccnc2S(C)(=O)=O)n1 [Example 24, (S)-1-cyclopropyl-3-(4-(4-(3-methylmorpholino)-6-(2-(methylsulfonyl)pyridin-3-yl)-1,3,5-triazin-2-yl)phenyl)urea]

— patent publication US9175011B2, “Morpholino substituted urea or carbamate derivatives as MTOR inhibitors” (CELLZOME LIMITED, priority 2011, dated 2015)
